{"source": "patent US20250263376A1", "about": "“(E)-N-CINNAMOYLAMINOALKANOLS WITH MELANOGENESIS INHIBITORY ACTIVITY” (Uniwersytet Jagiellonski, priority 2024, published 2025);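 as to Increase in the number of yellow wells compared to the reference level, E. coli WP2: bacteria exposed to compound for 90 min at 37 °C in 24-well plates, then transferred with indicator medium to 384-well plates and incubated 48 h before yellow well counting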", "key": {"[1]": {"system": "human reconstructed epidermis model EpiDerm", "assay": "Extended skin irritation test in reconstructed human epidermis EpiDerm", "type": "cell-based", "conditions": "1.0% in 50% PEG (10 μL)", "method": "Extended Skin Irritation Tests on Reconstructed Human Epidermis-Exposure Time Extended to 7 Days.\nIn order to perform extended skin irritation (safety) tests on the reconstructed human epidermis, the exposure time to the tested compounds was extended to 2 and 7 days in the human reconstructed epidermis model EpiDerm™ from MatTek. The epidermis was cultured according to the manufacturer's recommendations, using appropriate multi-well plates and culture media. Solutions of the tested compounds were applied to the epidermis using a positive displacement pipette and distributed using a sterile glass bulb headed Pasteur pipette. […] The epidermis was cultured in an incubator ensuring appropriate humidity, temperature (37° C.) and CO2 concentration (5%). The medium was replaced daily. After an appropriate incubation time, i.e. 2 days or 7 days, the epidermis was rinsed with sterile DPBS and incubated with MTT (Thiazolyl Blue Tetrazolium bromide) solution at 37° C. for 3 hours. After this time, a purple color of formazan was observed, correlated with tissue viability. […] Moreover, in the medium collected after the first 24 hours of EpiDerm epidermis culture, the level of interleukin 1α (Il-1α), which is a mediator of inflammation, was determined. Its level correlates with the unfavorable (irritating) effect of the tested substances on the epidermis. The level of IL-1α was determined using the Cayman Elisa test."}, "[2]": {"system": "keratinocytes (HaCaT)", "assay": "Safety, LDH test in keratinocytes", "type": "cell-based", "conditions": "48 hours, vs Triton X-100", "method": "(§1) In order to test the safety of the compounds, both normal human cells were used: keratinocytes (HaCaT), fibroblasts (BJ), primary melanocytes that occur in the skin, as well as human cancer cells: the hepatocarcinoma line HepG2 and the neuroblastoma line SH-SY5Y, which are considered a model for the assessment of hepatocytotoxicity and neurocytotoxicity. The concentrations of the tested compounds in the range of […] were used in the studies. The cell lines used in the research were purchased from the American Type Culture Collection (ATCC) and were cultured in media recommended by the manufacturer with the addition of FBS and antibiotics in an incubator ensuring appropriate culture conditions, i.e. humidity, temperature and CO2 concentration. Cells were seeded into multiwell plates and incubated with the test compounds for 48 hours. After this time, MTT and LDH tests were performed to assess cell viability. The MTT test is based on the ability to transform the substrate: [3-(4,5-dimethyl-2-thiazolyl)-2,5-diphenyl-2H-tetrazolium bromide into a colored product only by living cells. The absorbance at 570 nm, which corresponds to the absorption maximum for the product, is directly proportional to cell viability. The LDH test is based on testing the activity of the enzyme lactate dehydrogenase in the culture medium, which is released from cells as a result of damage to the cell membrane, e.g. as a result of cell death. Triton X-100 was used as a positive control in the test. The determination is colorimetric, the substrate is transformed by the released enzyme into a colored product, an increase in absorbance indicates a larger amount of the released enzyme, and thus confirms greater damage to cell membranes. Tables 7 and 8 present the results obtained, which correspond to the viability of cells incubated with the compounds in relation to the viability of cells constituting a control sample, i.e. incubated with the solvent (DMSO) at the same concentration as in the case of the groups tested in the MTT test or in relation to the results obtained for the Triton X-100 positive control in the LDH test. They indicate that the compounds are safe at the concentrations tested."}, "[3]": {"system": "fibroblasts (BJ)", "assay": "Safety, MTT test in fibroblasts", "type": "cell-based", "conditions": "48 hours", "method": "as §1"}, "[4]": {"system": "primary melanocytes", "assay": "Safety, MTT test in primary melanocytes", "type": "cell-based", "conditions": "48 hours", "method": "as §1"}, "[5]": {"system": "primary melanocytes", "assay": "Safety, LDH test in primary melanocytes", "type": "cell-based", "conditions": "48 hours, vs Triton X-100", "method": "as §1"}, "[6]": {"system": "hepatocarcinoma HepG2", "assay": "Safety, MTT test in HepG2", "type": "cell-based", "conditions": "48 hours", "method": "as §1"}, "[7]": {"system": "hepatocarcinoma HepG2", "assay": "Safety, LDH test in HepG2", "type": "cell-based", "conditions": "48 hours, vs Triton X-100", "method": "as §1"}, "[8]": {"system": "neuroblastoma SH-SY5Y", "assay": "Safety, LDH test in SH-SY5Y", "type": "cell-based", "conditions": "48 hours, vs Triton X-100", "method": "as §1"}, "[9]": {"system": "S. typhimurium TA98", "assay": "Ames microplate test, TA98", "type": "cell-based, Salmonella typhimurium", "method": "(§2) Bacteria were grown overnight in growth medium."}, "[10]": {"system": "S. typhimurium TA100", "assay": "Ames microplate test, TA100", "type": "cell-based, Salmonella typhimurium"}, "[11]": {"system": "S. typhimurium TA1537", "assay": "Ames microplate test, TA1537", "type": "cell-based, Salmonella typhimurium", "method": "as §2"}, "[12]": {"system": "E. coli WP2", "assay": "Ames microplate test, E. coli WP2", "protocol": "The study used the Ames microplate test (Ames MPF™ Penta 2 by Xenometrix, Allschwil, Switzerland). Growth medium, exposure medium, indicator medium, positive controls, hepatic microsomal fraction, NADP, glucose-6-phosphate, Salmonella typhimurium and Escherichia coli strains were components of the purchased experimental kit. Bacteria were grown overnight in growth medium. They were then exposed to the test compound at the appropriate concentration in exposure medium without or with the rat microsomal fraction S9 in 24-well plates for 90 min at 37° C. with shaking. Then, indicator medium was added to the wells and pipetted into 384-well plates, which were incubated for 48 hours at 37° C. without shaking. Results were assessed by counting the wells in which the medium turned yellow for each experimental condition."}}, "data": [{"smiles": "O=C(/C=C/c1ccccc1)NCCCCCO", "note": "[Compound A-133, (2E)-N-(5-hydroxypentyl)-3-phenylprop-2-enamide]", "values": [{"measurement": "Viability [% of control, mean ± SD] 2 days", "setting": "[1]", "result": "107.19 ± 7.45 % of control"}, {"measurement": "Viability [% of control, mean ± SD] 7 days", "setting": "[1]", "result": "107.26 ± 21.82 % of control"}, {"measurement": "Il-1α in culture medium", "setting": "[1]; medium after first 24 hours", "result": "34.99 ± 1.17", "unit": "pg/mL"}, {"measurement": "LDH, Keratinocytes (HaCaT)", "setting": "[2]; 100 μM", "result": "3.23 percentage of positive control"}, {"measurement": "LDH, Keratinocytes (HaCaT)", "setting": "[2]; 150 μM", "result": "3.08 percentage of positive control"}, {"measurement": "LDH, Keratinocytes (HaCaT)", "setting": "[2]; 200 μM", "result": "6.38 percentage of positive control"}, {"measurement": "LDH, Keratinocytes (HaCaT)", "setting": "[2]; 250 μM", "result": "19.58 percentage of positive control"}, {"measurement": "MTT, Fibroblasts (BJ)", "setting": "[3]; 100 μM", "result": "99.41 ± 5.96 % of solvent control"}, {"measurement": "MTT, Fibroblasts (BJ)", "setting": "[3]; 150 μM", "result": "91.68 ± 3.64 % of solvent control"}, {"measurement": "MTT, Fibroblasts (BJ)", "setting": "[3]; 200 μM", "result": "87.76 ± 2.71 % of solvent control"}, {"measurement": "MTT, Fibroblasts (BJ)", "setting": "[3]; 250 μM", "result": "82.50 ± 3.99 % of solvent control"}, {"measurement": "MTT, Primary melanocytes", "setting": "[4]; 100 μM", "result": "103.69 ± 2.57 % of solvent control"}, {"measurement": "MTT, Primary melanocytes", "setting": "[4]; 150 μM", "result": "101.88 ± 2.47 % of solvent control"}, {"measurement": "MTT, Primary melanocytes", "setting": "[4]; 200 μM", "result": "97.05 ± 2.96 % of solvent control"}, {"measurement": "MTT, Primary melanocytes", "setting": "[4]; 250 μM", "result": "88.88 ± 2.26 % of solvent control"}, {"measurement": "LDH, Primary melanocytes", "setting": "[5]; 100 μM", "result": "4.68 percentage of positive control"}, {"measurement": "LDH, Primary melanocytes", "setting": "[5]; 150 μM", "result": "7.59 percentage of positive control"}, {"measurement": "LDH, Primary melanocytes", "setting": "[5]; 200 μM", "result": "16.71 percentage of positive control"}, {"measurement": "LDH, Primary melanocytes", "setting": "[5]; 250 μM", "result": "19.45 percentage of positive control"}, {"measurement": "MTT, Hepatocarcinoma HepG2", "setting": "[6]; 100 μM", "result": "104.96 ± 7.60 % of solvent control"}, {"measurement": "MTT, Hepatocarcinoma HepG2", "setting": "[6]; 150 μM", "result": "100.66 ± 7.39 % of solvent control"}, {"measurement": "MTT, Hepatocarcinoma HepG2", "setting": "[6]; 200 μM", "result": "99.09 ± 1.60 % of solvent control"}, {"measurement": "MTT, Hepatocarcinoma HepG2", "setting": "[6]; 250 μM", "result": "98.92 ± 2.34 % of solvent control"}, {"measurement": "LDH, Hepatocarcinoma HepG2", "setting": "[7]; 100 μM", "result": "5.31 percentage of positive control"}, {"measurement": "LDH, Hepatocarcinoma HepG2", "setting": "[7]; 150 μM", "result": "7.07 percentage of positive control"}, {"measurement": "LDH, Hepatocarcinoma HepG2", "setting": "[7]; 200 μM", "result": "9.65 percentage of positive control"}, {"measurement": "LDH, Hepatocarcinoma HepG2", "setting": "[7]; 250 μM", "result": "16.13 percentage of positive control"}, {"measurement": "LDH, Neuroblastoma SH-SY5Y", "setting": "[8]; 100 μM", "result": "5.33 percentage of positive control"}, {"measurement": "LDH, Neuroblastoma SH-SY5Y", "setting": "[8]; 150 μM", "result": "6.93 percentage of positive control"}, {"measurement": "LDH, Neuroblastoma SH-SY5Y", "setting": "[8]; 200 μM", "result": "8.49 percentage of positive control"}, {"measurement": "LDH, Neuroblastoma SH-SY5Y", "setting": "[8]; 250 μM", "result": "13.32 percentage of positive control"}, {"measurement": "Increase in the number of yellow wells compared to the reference level, TA98", "setting": "[9]; 0.5 mM, + S9", "result": 0.50}, {"measurement": "Increase in the number of yellow wells compared to the reference level, TA98", "setting": "[9]; 0.5 mM, without S9", "result": 0.44}, {"measurement": "Increase in the number of yellow wells compared to the reference level, TA98", "setting": "[9]; 1.0 mM, + S9", "result": 0.67}, {"measurement": "Increase in the number of yellow wells compared to the reference level, TA98", "setting": "[9]; 1.0 mM, without S9", "result": 0.33}, {"measurement": "Increase in the number of yellow wells compared to the reference level, TA98", "setting": "[9]; 2.0 mM, + S9", "result": 1.00}, {"measurement": "Increase in the number of yellow wells compared to the reference level, TA98", "setting": "[9]; 2.0 mM, without S9", "result": 0.67}, {"measurement": "Increase in the number of yellow wells compared to the reference level, TA100", "setting": "[10]; 0.5 mM, + S9", "result": 0.83}, {"measurement": "Increase in the number of yellow wells compared to the reference level, TA100", "setting": "[10]; 0.5 mM, without S9", "result": 0.60}, {"measurement": "Increase in the number of yellow wells compared to the reference level, TA100", "setting": "[10]; 1.0 mM, + S9", "result": 0.78}, {"measurement": "Increase in the number of yellow wells compared to the reference level, TA100", "setting": "[10]; 1.0 mM, without S9", "result": 1.03}, {"measurement": "Increase in the number of yellow wells compared to the reference level, TA100", "setting": "[10]; 2.0 mM, + S9", "result": 0.61}, {"measurement": "Increase in the number of yellow wells compared to the reference level, TA100", "setting": "[10]; 2.0 mM, without S9", "result": 0.57}, {"measurement": "Increase in the number of yellow wells compared to the reference level, TA1537", "setting": "[11]; 0.5 mM, + S9", "result": 0.18}, {"measurement": "Increase in the number of yellow wells compared to the reference level, TA1537", "setting": "[11]; 0.5 mM, without S9", "result": 1.07}, {"measurement": "Increase in the number of yellow wells compared to the reference level, TA1537", "setting": "[11]; 1.0 mM, + S9", "result": 0.36}, {"measurement": "Increase in the number of yellow wells compared to the reference level, TA1537", "setting": "[11]; 1.0 mM, without S9", "result": 0.54}, {"measurement": "Increase in the number of yellow wells compared to the reference level, TA1537", "setting": "[11]; 2.0 mM, + S9", "result": 0.27}, {"measurement": "Increase in the number of yellow wells compared to the reference level, TA1537", "setting": "[11]; 2.0 mM, without S9", "result": 0.54}, {"measurement": "Increase in the number of yellow wells compared to the reference level, E. coli WP2", "setting": "[12]; 0.5 mM, + S9", "result": 0.27}, {"measurement": "Increase in the number of yellow wells compared to the reference level, E. coli WP2", "setting": "[12]; 0.5 mM, without S9", "result": 0.73}, {"measurement": "Increase in the number of yellow wells compared to the reference level, E. coli WP2", "setting": "[12]; 1.0 mM, + S9", "result": 0.44}, {"measurement": "Increase in the number of yellow wells compared to the reference level, E. coli WP2", "setting": "[12]; 1.0 mM, without S9", "result": 0.37}, {"measurement": "Increase in the number of yellow wells compared to the reference level, E. coli WP2", "setting": "[12]; 2.0 mM, + S9", "result": 0.53}, {"measurement": "Increase in the number of yellow wells compared to the reference level, E. coli WP2", "setting": "[12]; 2.0 mM, without S9", "result": 1.10}]}]}
